We go through 7 molecules from patent publication US9504669B2, “Spliceostatin analogs and methods for their preparation” (PFIZER INC., priority 2012, dated 2016).

Test [1] concerns N87 (gastric cancer) cells. The test can be described thus: In vitro cell assay (MTS cell viability), N87. It counts as cell-based. Particulars: free compounds (natural products and synthetic analogs), cell viability 96 hours after treatment. As for the experimental part: (§1) Target expressing (BT474 (breast cancer), N87 (gastric cancer), HCC1954 (breast cancer), MDA-MB-361-DYT2 (breast cancer)) or non-expressing (MDA-MB-468) cells were seeded in 96-well cell culture plates for 24 hours before treatment. Cells were treated with 3-fold serially diluted antibody-drug conjugates or free compounds (i.e., no antibody conjugated to the drug) in duplicate at 10 concentrations. Cell viability was determined by CellTiter 96® AQueous One Solution Cell Proliferation MTS Assay (Promega, Madison Wis.) 96 hours after treatment. Relative cell viability was determined as percentage of untreated control. IC50 values were calculated using a four parameter logistic model #203 with XLfit v4.2 (IDBS, Guildford, Surry, UK). The potency ranged upward from 0.0002 nm. Similar procedures and techniques were employed.

Test [2] has as its system MDA-MB-361-DYT2 (breast cancer) cells. The test can be described thus: In vitro cell assay (MTS cell viability), MDA-MB-361-DYT2. In kind it is cell-based. The note with it: free compounds (natural products and synthetic analogs), cell viability 96 hours after treatment. As for the experimental part: as §1

As for `CCCNC(=O)NC[C@@H]1C[C@@]2(CO2)[C@H](O)[C@@H](/C=C/C(C)=C/C[C@@H]2O[C@H](C)[C@H](NC(=O)/C=C\[C@H](C)OC(C)=O)C[C@@H]2C)O1` [#B242, (2S,3Z)-5-{[(2R,3R,5S,6S)-6-{(2E,4E)-5-[(3R,4R,5R,7S)-4-hydroxy-7-{[(propylcarbamoyl)amino]methyl}-1,6-dioxaspiro[2.5]oct-5-yl]-3-methylpenta-2,4-dien-1-yl}-2,5-dimethyltetrahydro-2H-pyran-3-yl]amino}-5-oxopent-3-en-2-yl acetate], the values for the IC50 in test [1] (96 h) and in test [2] (96 h) were 0.57 nM and 3.76 nM, respectively.

In the case of `COC(=O)C[C@@H]1C[C@@]2(CO2)[C@H](OC)[C@@H](/C=C/C(C)=C/C[C@@H]2O[C@H](C)[C@H](NC(=O)/C=C\[C@H](C)O)C[C@@H]2C)O1` [#B264, methyl [(3R,5S,7R,8R)-7-{(1E,3E)-5-[(2S,3S,5R,6R)-5-{[(2Z,4S)-4-hydroxypent-2-enoyl]amino}-3,6-dimethyltetrahydro-2H-pyran-2-yl]-3-methylpenta-1,3-dien-1-yl}-8-methoxy-1,6-dioxaspiro[2.5]oct-5-yl]acetate], the IC50 in test [1] (96 h) and in test [2] (96 h) was above 100 nM each time.

For the molecule `COC(=O)C[C@@H]1C[C@@]2(CO2)[C@H](OC)[C@@H](/C=C/C(C)=C/C[C@@H]2O[C@H](C)[C@H](NC(=O)/C=C\[C@H](C)OC(C)=O)C[C@@H]2C)O1` [#B265, methyl [(3R,5S,7R,8R)-7-{(1E,3E)-5-[(2S,3S,5R,6R)-5-{[(2Z,4S)-4-(acetyloxy)pent-2-enoyl]amino}-3,6-dimethyltetrahydro-2H-pyran-2-yl]-3-methylpenta-1,3-dien-1-yl}-8-methoxy-1,6-dioxaspiro[2.5]oct-5-yl]acetate], the results for the IC50 in test [1] (96 h) and in test [2] (96 h) were 10.2 nM and 8.67 nM, respectively.

Take `CC(=O)O[C@@H](C)/C=C\C(=O)N[C@@H]1C[C@H](C)[C@H](C/C=C(C)/C=C/[C@H]2O[C@H](CC(=O)NCc3ccc(C(N)=O)cc3)C[C@@]3(CO3)[C@@H]2O)O[C@@H]1C` [#B266, (2S,3Z)-5-{[(2R,3R,5S,6S)-6-{(2E,4E)-5-[(3R,4R,5R,7S)-7-{2-[(4-carbamoylbenzyl)amino]-2-oxoethyl}-4-hydroxy-1,6-dioxaspiro[2.5]oct-5-yl]-3-methylpenta-2,4-dien-1-yl}-2,5-dimethyltetrahydro-2H-pyran-3-yl]amino}-5-oxopent-3-en-2-yl acetate]: the half-maximal inhibitory concentration (IC50) was 28.4 nM in test [1] (96 h) and above 100 nM in test [2] (96 h).

As for `CC(=O)O[C@@H](C)/C=C\C(=O)N[C@@H]1C[C@H](C)[C@H](C/C=C(C)/C=C/[C@H]2O[C@H](CC(=O)Nc3ccc(C(N)=O)cc3)C[C@@]3(CO3)[C@@H]2O)O[C@@H]1C` [#B267, (2S,3Z)-5-{[(2R,3R,5S,6S)-6-{(2E,4E)-5-[(3R,4R,5R,7S)-7-{2-[(4-carbamoylphenyl)amino]-2-oxoethyl}-4-hydroxy-1,6-dioxaspiro[2.5]oct-5-yl]-3-methylpenta-2,4-dien-1-yl}-2,5-dimethyltetrahydro-2H-pyran-3-yl]amino}-5-oxopent-3-en-2-yl acetate], the IC50 in test [1] (96 h) was 3.44 nM; in test [2] (96 h) it was 23.8 nM.

For `CC(/C=C/[C@@H]1C[C@]2(CO2)C[C@@H](CC(N)=O)O1)=C\C[C@@H]1O[C@H](C)[C@H](NC(=O)/C=C/C(C)N)C[C@@H]1C` (stereo partly drawn) [#B271, (2E)-4-amino-N-[(2R,3R,5S,6S)-6-{(2E,4E)-5-[(3S,5S,7S)-7-(2-amino-2-oxoethyl)-1,6-dioxaspiro[2.5]oct-5-yl]-3-methylpenta-2,4-dien-1-yl}-2,5-dimethyltetrahydro-2H-pyran-3-yl]pent-2-enamide], the IC50 in test [1] and in test [2] was above 100 nM in each case.

Regarding `CC(/C=C/[C@@H]1C[C@]2(CO2)C[C@@H](CC(N)=O)O1)=C\C[C@@H]1O[C@H](C)[C@H](NC(=O)/C=C\C(C)N)C[C@@H]1C` (stereo partly drawn) [#B272, (2Z)-4-amino-N-[(2R,3R,5S,6S)-6-{(2E,4E)-5-[(3S,5S,7S)-7-(2-amino-2-oxoethyl)-1,6-dioxaspiro[2.5]oct-5-yl]-3-methylpenta-2,4-dien-1-yl}-2,5-dimethyltetrahydro-2H-pyran-3-yl]pent-2-enamide], the IC50 in test [1] (96 h) and in test [2] (96 h) was above 100 nM throughout.

For orientation: IC50 means the point on the concentration scale where inhibition reaches its midpoint. A high value points to weaker potency in that assay.
